According to patent US20260092039A1, “DUAL INHIBITORS FOR THE TREATMENT OF ALZHEIMER'S DISEASE” (UNIVERSITAT DE BARCELONA, priority 2023, published 2026):

How the values were obtained:
[1] = test system: primary mouse cortical neurons; assay: MTT viability assay in mouse primary cortical neurons; format: cell-based
Description: The compounds were diluted from 250 mM DMSO stocks to a 100 mM stock in DMSO. Thereafter, compounds were diluted to 100 μM, 20 μM, 5 μM, 1 μM, 0.2 μM, 0.05 μM, 0.01 μM and 0.001 μM dilution in medium, so that the final DMSO concentration in the well was 0.1% for all conditions. Stock solutions were stored at −20° C. until further use.
Isolation and treatment of primary mouse cortical neurons: Primary cortical neurons were prepared from timed pregnant wild-type C57BL/6JRccHsd mice at E16.5-E18. Animals were sacrificed by carbon dioxide and embryos were dissected in Calcium and Magnesium free Hanks Balanced Salt Solution (CMF-HBSS) containing 15 mM HEPES and 10 mM NaHCO3, pH 7.2. Embryos were decapitated, skin and skull gently removed and cortical hemispheres were separated. After removing meninges and brain stem, the cortex was isolated, chopped with a sterile razor blade in Chop solution (Hibernate-E without Calcium containing 2% B-27) and digested in 2 mg/mL papain (Worthington) dissolved in Hibernate-E without Calcium for 30 min at 30° C. Cortices were triturated for 10-15 times with a fire-polished silanized Pasteur pipette in Hibernate-E without Calcium containing 2% B-27, 0.01% DNaseI, 1 mg/mL BSA, and 1 mg/mL Ovomucoid Inhibitor. Undispersed pieces were allowed to settle by gravity for 1 min and the supernatant was centrifuged for 3 min at 228 g. The pellet was resuspended in Hibernate-E containing 2% B-27, 0.01% DNaseI, 1 mg/mL BSA, 1 mg/mL Ovomucoid Inhibitor and diluted with Hibernate-E containing 2% B-27. After the second centrifugation step (3 min at 228 g), the pellet was resuspended in nutrition medium without glutamate (Neurobasal, 2% B-27, 0.5 mM glutamine, 1% Penicillin-Streptomycin). Cells were counted in a hemacytometer and seeded in nutrition medium on poly-D-lysine pre-coated plates. Cells were cultured at 37° C.; 95% humidity and 5% CO2. All wells were handled the same way. On DIV8, cells were treated with the compounds for the evaluation of the neurotoxic effect. On DIV9, the MTT and LDH assays were performed as described below. The experiments were performed in six technical replicates for all groups per experiment.
MTT viability assay: Viability of cultures was determined on DIV9 by the MTT assay using a plate-reader (570 nm). MTT solution was added to each well in a final concentration of 0.5 mg/mL. After 2 h the MTT containing medium was aspirated. Cells were lysed in 3% SDS and the formazan crystals were dissolved in isopropanol/HCl. Optical density was measured with a plate-reader at wavelength 570 nm. Cell survival rate was expressed as optical density (OD). Values were calculated as percent of control values (vehicle control).

[2] = biological target: T1, recombinant human sEH (hsEH) (Homo sapiens, UniProt P34913); assay: In vitro determination of sEH inhibitory activity (fluorescent PHOME assay)
T1 sequence (P34913 1-555): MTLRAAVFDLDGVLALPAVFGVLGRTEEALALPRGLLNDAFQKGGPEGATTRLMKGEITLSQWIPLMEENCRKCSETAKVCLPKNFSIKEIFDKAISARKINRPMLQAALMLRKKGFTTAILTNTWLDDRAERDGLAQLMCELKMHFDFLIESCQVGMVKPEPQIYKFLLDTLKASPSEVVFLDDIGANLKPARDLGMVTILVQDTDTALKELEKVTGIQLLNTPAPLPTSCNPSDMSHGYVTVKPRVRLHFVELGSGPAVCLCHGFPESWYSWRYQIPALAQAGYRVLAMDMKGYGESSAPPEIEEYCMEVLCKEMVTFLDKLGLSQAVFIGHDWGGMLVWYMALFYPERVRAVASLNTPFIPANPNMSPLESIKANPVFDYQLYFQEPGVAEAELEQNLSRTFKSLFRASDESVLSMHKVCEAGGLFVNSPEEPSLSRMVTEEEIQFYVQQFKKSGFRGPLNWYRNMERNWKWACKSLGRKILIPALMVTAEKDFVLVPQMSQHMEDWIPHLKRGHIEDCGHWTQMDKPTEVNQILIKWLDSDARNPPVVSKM
Description: Control compound (TPPU): N-[1-(1-Oxopropyl)-4-piperidinyl]-N′-[4-(trifluoromethoxy)phenyl]urea.
Five μL of DMSO were added to background and positive control wells, and then 5 μL of inhibitor solution were added in the inhibitor wells. Five μL of the solution of hsEH were added to the positive control and inhibitor wells and the mixture was stirred. A 1/21 dilution of the solution of PHOME with assay buffer was prepared according to the final volume required, and then 105 μL of each well were added. The plate was carefully shaken for 10 seconds and was incubated for 5 minutes at room temperature. […] The intensity of fluorescence was used to analyze and calculate the IC50 values. Results were obtained by regression analysis from at least three data points in a linear region of the curve. IC50 values are average of minimum three independent replicates.

[3] = biological target: T2, human recombinant glutaminyl cyclase (hQC) (Homo sapiens, UniProt Q16769); assay: In vitro determination of human QC inhibitory activity (SensoLyte Green Glutaminyl Cyclase Activity Assay Kit); format: biochemical
T2 construct: purchased Eurogentec AS-72230
Description: Basic statistical analysis was performed.

LPS stimulated BV2 cells = assay: Cytokine release in LPS stimulated BV2 cells; format: cell-based, murine; settings: 24 h
Description: Compounds of formula I were diluted from 250 mM DMSO stock solutions to a 10 mM stock in DMSO. Thereafter, the compounds were diluted to 10 μM and 1 μM in medium, so that the final DMSO concentration in the well was 0.1% for all conditions. The stock solutions were stored at −20° C. until further use.
Culture and treatment of BV-2 cells: The murine microglial cell line BV-2 was cultivated in Dulbecco's modified eagle medium (DMEM) supplemented with 10% fetal calf serum (FCS), 1% penicillin/streptomycin and 2 mM L-glutamine (culture medium). For the lipopolysaccharide (LPS) stimulation assay, 20,000 BV-2 cells per well (uncoated 96 well plates) were plated out. After 48 h, the medium was changed to treatment medium (DMEM, 5% FCS, 2 mM L-glutamine) and cells were maintained in treatment medium for the remaining culture period. After changing cells to treatment medium, the compounds were administered 1 h before LPS stimulation (Sigma-Aldrich; L6529; 1 mg/mL stock in ddH2O, final concentration in well: 100 ng/mL (dilutions in medium)). Cells treated with vehicle and LPS alone served as controls. All wells were handled the same way. After 24 h of stimulation, cell supernatants were collected for the cytokine measurement. The experiment was performed in n=6 technical replicates for all groups.
Cytokine measurement: The samples were diluted 1:2 and analysed for 4 cytokines (IL-1β, IL-2, IL-6, TNF-α) with a commercially available immunosorbent assay kit (U-plex, K15069L, Mesoscale Discovery) according to the instructions of the manufacturer. In brief, 25 μL of diluent 41 and 25 μL sample or respective standard were placed into wells of the pre-coated U-plex plate and incubated on an orbital shaker at room temperature for 1 h. Plates were washed 3 times with phosphate buffered saline with 0.05% Tween 20 (PBST) and thereafter 50 μL of detection antibody were added. Plates were again incubated on an orbital shaker at room temperature for 1 h. After another 3 washing steps with PBST, 150 μL of Mesoscale Discovery (MSD) GOLD Read Buffer were added and plates were read on Sector imager. Data were evaluated in comparison to calibration curves provided in the kit.
Statistics: Basic statistical analysis was performed. Group differences were evaluated by e.g. one-way ANOVA followed by a posthoc test, if appropriate.

T2 sequence (Q16769 29-361): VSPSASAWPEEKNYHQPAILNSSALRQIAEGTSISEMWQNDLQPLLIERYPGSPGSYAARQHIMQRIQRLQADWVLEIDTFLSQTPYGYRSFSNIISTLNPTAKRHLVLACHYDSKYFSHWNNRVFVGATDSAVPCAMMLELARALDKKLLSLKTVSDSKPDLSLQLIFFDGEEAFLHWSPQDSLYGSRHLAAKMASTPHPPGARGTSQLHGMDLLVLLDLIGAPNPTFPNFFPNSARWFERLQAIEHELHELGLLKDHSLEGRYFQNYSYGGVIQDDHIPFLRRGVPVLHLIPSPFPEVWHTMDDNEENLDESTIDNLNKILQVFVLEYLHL

Compound	primary cortical neuronal cell viability, MTT ([1]; compound 0.001 μM)	primary cortical neuronal cell viability, MTT ([1]; compound 0.01 μM)	primary cortical neuronal cell viability, MTT ([1]; compound 0.05 μM)	primary cortical neuronal cell viability, MTT ([1]; compound 0.2 μM)	primary cortical neuronal cell viability, MTT ([1]; compound 1 μM)	primary cortical neuronal cell viability, MTT ([1]; compound 5 μM)	primary cortical neuronal cell viability, MTT ([1]; compound 20 μM)	primary cortical neuronal cell viability, MTT ([1]; compound 100 μM)	IC50 [2] [µM]	IC50 [3] [µM]	IL-1β level (LPS stimulated BV2 cells; compound 1 μM)	IL-2 level (LPS stimulated BV2 cells; compound 1 μM)	IL-6 level (LPS stimulated BV2 cells; compound 1 μM)	TNF-α level (LPS stimulated BV2 cells; compound 1 μM)	IL-1β level (LPS stimulated BV2 cells; compound 10 μM)	IL-2 level (LPS stimulated BV2 cells; compound 10 μM)	IL-6 level (LPS stimulated BV2 cells; compound 10 μM)	TNF-α level (LPS stimulated BV2 cells; compound 10 μM)
CCC12CC3CC(C1)CC(NC(=O)NCCCn1cncc1C)(C3)O2 [Is, 1-(3-ethyl-2-oxaadamantan-1-yl)-3-[3-(5-methyl-1H-imidazol-1-yl)propyl]urea]	104 % of vehicle control	102 % of vehicle control	103 % of vehicle control	96 % of vehicle control	101 % of vehicle control	103 % of vehicle control	101 % of vehicle control	86 % of vehicle control	2.8	0.096	95 % of vehicle control	66 % of vehicle control	65 % of vehicle control	104 % of vehicle control	124 % of vehicle control	48 % of vehicle control	64 % of vehicle control	104 % of vehicle control
Cc1cncn1CCCNC(=O)NC12CC3CC(CC(C)(C3)O1)C2 [Ir, 1-[3-(5-methyl-1H-imidazol-1-yl)propyl]-3-(3-methyl-2-oxaadamantan-1-yl)urea]	97 % of vehicle control	97 % of vehicle control	93 % of vehicle control	99 % of vehicle control	101 % of vehicle control	99 % of vehicle control	99 % of vehicle control	87 % of vehicle control	0.86	0.139	77 % of vehicle control	52 % of vehicle control	37 % of vehicle control	107 % of vehicle control	94 % of vehicle control	37 % of vehicle control	38 % of vehicle control	102 % of vehicle control
CCC12CC3CC(C1)CC(NC(=O)NCCCn1cncc1C)(C3)C2 [Id, 1-(3-ethyladamantan-1-yl)-3-[3-(5-methyl-1H-imidazol-1-yl)propyl]urea]	110 % of vehicle control	107 % of vehicle control	100 % of vehicle control	99 % of vehicle control	99 % of vehicle control	93 % of vehicle control	89 % of vehicle control	53 % of vehicle control	0.0033	0.57	46 % of vehicle control	38 % of vehicle control	34 % of vehicle control	98 % of vehicle control	73 % of vehicle control	26 % of vehicle control	24 % of vehicle control	84 % of vehicle control
Cc1cncn1CCCNC(=O)NC1C2CC3CC(C2)CC1C3 (stereo not drawn) [Ii, 1-(adamantan-2-yl)-3-[3-(5-methyl-1H-imidazol-1-yl)propyl]urea]	101 % of vehicle control	95 % of vehicle control	99 % of vehicle control	96 % of vehicle control	101 % of vehicle control	101 % of vehicle control	101 % of vehicle control	55 % of vehicle control	0.0043	0.189	86 % of vehicle control	66 % of vehicle control	63 % of vehicle control	104 % of vehicle control	125 % of vehicle control	48 % of vehicle control	62 % of vehicle control	103 % of vehicle control
